Data set [1] has as its system Human PBMC. Briefly: Human PBMC CellTiter-Glo viability. Format: cell-based. As to conditions: no stimulation, 24 hours. On the procedure:
(§1) Human PBMC were freshly isolated from whole blood collections of 3 normal donors utilizing density gradient centrifugation followed by red blood cell lysis. PBMC from each donor were assayed separately. Cells were suspended in RPMI 1640 media supplemented with 5% fetal bovine serum, 2 mM L-glutamine, 10 mM HEPES, and 1× penicillin/streptomycin. PBMC were seeded at 200,000 cells/well in 96-well round-bottom plates either without stimulation or with stimulation by lipopolysaccharide (LPS, 1 μg/mL) or antibodies against human CD3 (plate-bound, 2 μg/mL) and human CD28 (soluble, 2 μg/mL). Serial dilutions of compound in DMSO/media were simultaneously added and PBMC were incubated at 37° C., 5% CO2 for 24 hours. After 24 hours, plates were centrifuged and half of the supernatant volume removed for cytokine analysis by electrochemiluminescent immunoassay (U-PLEX® Biomarker Multiplex, Meso Scale Discovery). For viability analysis, CellTiter-Glo® (Promega) was added to the remaining material in each well and quantified via luminescent plate reader.
A general note: In ATP-based viability assays light output follows the ATP content of the culture.

Data set [2] has as its system GM-CSF. Briefly: Human PBMC Cytokine Assay: GM-CSF. The format is cell-based. The settings on record: anti-CD3/CD28 stimulation, 24 hours. As to the method: as §1
In data set [3] the test system is multiple myeloma cell line U266B1. Put plainly: U266 Cell Viability Assay. Format: cell-based, human. The settings on record: Homo sapiens, U-266, 48 hr. The procedure, abridged: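 U266B1 myeloma cells in RPMI 1640 with 10% FBS were treated with compound dilutions for 48 h at 37° C, 5% CO2. Viability was read as CellTiter-Glo luminescence. Data for structures drawn without stereochemistry refer to stereoisomer mixtures.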

In data set [4] the test system is IL-2. Put plainly: Human PBMC Cytokine Assay: IL-2. The format is cell-based. As to conditions: anti-CD3/CD28 stimulation, 24 hours. On the procedure: as §1
Data set [5] in a line: In Vitro Microsome Stability Assay (mouse). The format is in vitro ADME. The procedure, abridged:
(§2)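 The value reported is the percentage of parent left after 30 min, calculated from analyte/IS peak-area ratios relative to time zero by LC-MS/MS. Incubations ran at 37° C in 0.1 M potassium phosphate with NADPH and microsomes (stock 20 mg/mL), with compound added from a 0.25 mM DMSO stock. Acetonitrile containing IS stopped the reactions.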

Data set [6] deals with IL-1β. Put plainly: Human PBMC Cytokine Assay: IL-1β. As to conditions: LPS stimulation, 24 hours. The format is cell-based. As to the method: as §1
Data set [7] deals with IFNγ. Briefly: Human PBMC Cytokine Assay: IFNγ. The format is cell-based. As to conditions: anti-CD3/CD28 stimulation, 24 hours. As to the method:
as §1

For data set [8], the system named is multiple myeloma cell line NCl-H929. Put plainly: H929 Cell Viability Assay. The format is cell-based, human. As to conditions: Homo sapiens, NCI-H929, 48 h. The procedure, abridged:
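NCI-H929 myeloma cells in RPMI 1640 with 10% FBS were treated with compound dilutions for 48 h at 37 °C, and viability was then read by CellTiter-Glo luminescence. Compounds drawn without stereochemistry were tested as stereoisomer mixtures.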

Data set [9] deals with PD1 signal sequence plus 10 amino acids fused to Gaussia Luciferase (PD1-ss+10aa/Gaussia Luciferase). Put plainly: Dox Induced PD1-ss-Gluc Assay. The format is cell-based. As to conditions: 24 hr, read-out: 24 hr Dox Inducible PD1ssGluc 293FRT/TO: Mean IC50. The gist of the method:
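Stable Flp-In 293 T-REx line expressing the fusion under tetracycline-inducible control, plated the day before assay. Compound dilutions added with doxycycline and incubated at 37 °C, 5% CO2; unspecified stereocentres mean data refer to stereoisomer mixtures.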

The nature of data set [10]: In Vitro Microsome Stability Assay (monkey). The format is in vitro ADME. The procedure, abridged: as §2
Data set [11] has as its system HER3 signal sequence plus 4 amino acids fused to Gaussia Luciferase (HER3-ss+4aa/Gaussia Luciferase). Put plainly: Dox Induced HER3-ss-Gluc Assay. The format is cell-based. The settings on record: 24 hr, doxycycline induced, Flp-In 293 T-REx cells; read-out: 24 hr Dox Inducible Her3(ss + 4) Gluc 293FRT/TO: Mean 1050. The procedure, abridged:
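Stable Flp-In 293 T-REx line expressing HER3 signal sequence+4aa/Gaussia luciferase under doxycycline-inducible control. Cells plated the day before; compound dilutions added in doxycycline-containing medium and incubated at 37° C, 5% CO2.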

Setting [12] is: mouse liver microsomes, 30 min w/ NADPH.
The mark [13] stands for this setting: monkey liver microsomes, 30 min w/ NADPH.

Read-outs that look alike come from different tables or passages of the source.

The EC50 is the concentration giving half of the maximal effect.

As for `C[C@H]1CN(S(=O)(=O)c2ccc(N(C)C)cc2)CCCN(CC2CCCCC2)CCCN(S(=O)(=O)N2CCc3cc(Cl)ccc3C2)C1` [A87], the IC50 was greater than 25000 nM in [1]; 165 nM in [2]; 31 nM in data set [4]; greater than 25000 nM in [6]; 152 nM in data set [7]; 0.0192 µM in [9] (293FRT/TO). Besides, the 50% effective concentration (EC50) in [3] (U266, read-out: 48 hr U266 Viability Celltiter-Glo: Mean EC50) is greater than 25 µM; in data set [8] (H929, read-out: 48 hr H929 Viability Celltiter-Glo: Mean EC50), 0.224 µM. The “Liver Microsome Stability-% Left after 30 min w/ NADPH (%) Mouse” value (shortened to “Liver Microsome Stability-% Left … (%) Mouse”) in data set [5] (mouse, 30 min, NADPH) was 49.6%. Also, the “Liver Microsome Stability-% Left after 30 min w/ NADPH (%) Monkey” value (“Liver Microsome Stability-% Left … (%) Monkey” for short) in data set [10] (monkey, 30 min, NADPH) is 32.7%.
As to `COc1cc(F)ccc1N1CCN(S(=O)(=O)N2CCCN(CC3CCCCC3)CCCN(S(=O)(=O)c3ccc(N(C)C)cc3)C[C@H](C)C2)CC1` [A137], the IC50 was greater than 25000 nM in data set [1]; 25 nM in [2]; 8 nM in data set [4]; greater than 25000 nM in data set [6]; 21 nM in data set [7]; 0.0109 µM in data set [11]. Further, the IC50 in data set [9] (Dox inducible, 293FRT/TO cells) worked out at 0.0083 µM. The concentration for a half-maximal effect (EC50) in data set [3] (U266, Celltiter-Glo) is greater than 25 µM; in data set [8] (H929, Celltiter-Glo), 0.282 µM. In addition, the “Liver Microsome Stability-% Left … (%) Mouse” value in data set [5] (setting [12]) was found to be 28%. Moreover, in data set [10] (setting [13]), the “Liver Microsome Stability-% Left … (%) Monkey” value came to 14.2%.
On to `C[C@H]1CN(S(=O)(=O)c2ccc(N(C)C)cc2)CCCN(CC2CCCCC2)CCCN(S(=O)(=O)N2CCc3c(C#N)cccc3C2)C1` [A151, 2-{[(3S)-9-(cyclohexylmethyl)-5-[4-(dimethylamino)benzenesulfonyl]-3-methyl-1,5,9-triazacyclododecan-1-yl]sulfonyl}-1,2,3,4-tetrahydroisoquinoline-5-carbonitrile], for which the half-maximal effective concentration (EC50) in [3] (U266, Celltiter-Glo) was greater than 25 µM; in data set [8] (H929, Celltiter-Glo), 2.71 µM. Besides, the “Liver Microsome Stability-% Left … (%) Mouse” value in [5] (setting [12]) was determined as 4.55%. In addition, the IC50 in data set [11] came out at 0.276 µM; in [9] (Dox inducible, 293FRT/TO cells), 0.153 µM. Besides, the “Liver Microsome Stability-% Left … (%) Monkey” value in data set [10] (setting [13]) is on record as 3.98%.
Take `COc1cc(F)ccc1N1CCN(S(=O)(=O)N2CCCN(CC3CCCCC3)CCCN(S(=O)(=O)c3ccc(N(C)C)cc3)C[C@H](C)C2)C[C@H]1C` [A177, 4-{[(3S)-9-(cyclohexylmethyl)-5-{[(3 R)-4-(4-fluoro-2-methoxyphenyl)-3-methylpiperazin-1-yl]sulfonyl}-3-methyl-1,5,9-triazacyclododecan-1-yl]sulfonyl}-N,N-dimethylaniline]: the IC50 in data set [1] is greater than 25000 nM; in [2], 19 nM; in data set [4] it was 10 nM; in data set [6], greater than 25000 nM; in data set [7] it was 19 nM; in [11], 0.0109 µM. Also, the IC50 in [9] (Dox inducible, 293FRT/TO cells) turned out to be 0.00495 µM. The EC50 is greater than 25 µM in data set [3] (U266, Celltiter-Glo) and 0.18 µM in data set [8] (H929, Celltiter-Glo). Further, the “Liver Microsome Stability-% Left … (%) Mouse” value in data set [5] (setting [12]) was found to be 11.6%. The “Liver Microsome Stability-% Left … (%) Monkey” value in [10] (setting [13]) came to 2.8%.
